Measurements: PMC9787607, “A Novel Protocol for the Synthesis of 1,2,4-Oxadiazoles Active against Trypanosomatids and Drug-Resistant Leukemia Cell Lines” (Tropical Medicine and Infectious Disease, 2022)

How the values were obtained:
[1] = target: T1, human serum albumin (HSA) (Homo sapiens, UniProt P02768); test: Time-resolved fluorescence of HSA; type: binding; details: HSA 1.0 × 10^−5 M with 23 1.32 × 10^−5 M, pH 7.4, 296 K
T1 construct: purchased Sigma-Aldrich A3782-1G
Procedure: Time-resolved fluorescence measurements were performed on a model FL920 CD fluorimeter from Edinburgh Instruments equipped with an EPL laser (λexc = 280 ± 10 nm; pulse of 850 ps with energy of 1.8 µW/pulse; monitoring emission at 340 nm). The time-resolved fluorescence decays of a 3.0 mL HSA solution (1.0 × 10^−5 M, in PBS) were obtained without and with compound 23 (1.32 × 10^−5 M).

[2] = target: T1, human serum albumin (HSA); test: Steady-state fluorescence quenching of HSA; type: binding; details: for KSV (Stern-Volmer quenching constant) / kq (bimolecular quenching rate constant) / n (number of binding sites): PBS
Procedure: Steady-state fluorescence and circular dichroism (CD) spectra were measured on a Jasco J-815 optical spectrometer employing a Jasco PFD-425S15F thermostatic cuvette holder. All spectra were recorded with appropriate background corrections. For the steady-state fluorescence data, inner filter corrections were performed, following the literature.
The steady-state fluorescence measurements were carried out in the 290–450 nm range (λexc = 280 nm) at 289, 296, 303, 310, and 317 K. The addition of compound 23 to a 3.0 mL HSA solution (1.0 × 10^−5 M, in PBS) was done manually, achieving final concentrations of 0.17, 0.33, 0.50, 0.66, 0.83, 0.99, 1.15, and 1.32 × 10^−5 M. To obtain quantitative information on the binding capacity of 23 to HSA, Stern-Volmer, double-logarithmic, van’t Hoff, and Gibbs’ free energy analysis were applied following our previous works.

[3] = target: T1, human serum albumin (HSA); test: Circular dichroism of HSA; type: binding; details: HSA 1.0 × 10^−6 M, proportion 1:10, 310 K
Procedure: The CD analysis was carried out using 3.0 mL of HSA solution (1.0 × 10^−6 M, in PBS) without and with 23 in the proportion 1:10 in the 200–250 nm range at 310 K. The average spectra were obtained from three successive runs and corrected by subtraction of the buffer signal. The secondary structure content was estimated by analysis of the CD spectra using the online server BestSel (Beta Structure Selection http://bestsel.elte.hu/index.php; accessed on 12 March 2022).

[4] = target: T1, human serum albumin (HSA); test: Competitive binding with HSA site probes (warfarin, ibuprofen, digitoxin)
Procedure: Competitive binding studies were carried out using site probes for sites I, II, and III, i.e., warfarin, ibuprofen, and digitoxin, respectively. The HSA and site probes were used at a fixed concentration (1.0 × 10^−5 M), and the fluorescence quenching titration with compound 23 was performed as described previously for the steady-state fluorescence quenching procedure at 310 K.

T1 sequence (P02768 25-609): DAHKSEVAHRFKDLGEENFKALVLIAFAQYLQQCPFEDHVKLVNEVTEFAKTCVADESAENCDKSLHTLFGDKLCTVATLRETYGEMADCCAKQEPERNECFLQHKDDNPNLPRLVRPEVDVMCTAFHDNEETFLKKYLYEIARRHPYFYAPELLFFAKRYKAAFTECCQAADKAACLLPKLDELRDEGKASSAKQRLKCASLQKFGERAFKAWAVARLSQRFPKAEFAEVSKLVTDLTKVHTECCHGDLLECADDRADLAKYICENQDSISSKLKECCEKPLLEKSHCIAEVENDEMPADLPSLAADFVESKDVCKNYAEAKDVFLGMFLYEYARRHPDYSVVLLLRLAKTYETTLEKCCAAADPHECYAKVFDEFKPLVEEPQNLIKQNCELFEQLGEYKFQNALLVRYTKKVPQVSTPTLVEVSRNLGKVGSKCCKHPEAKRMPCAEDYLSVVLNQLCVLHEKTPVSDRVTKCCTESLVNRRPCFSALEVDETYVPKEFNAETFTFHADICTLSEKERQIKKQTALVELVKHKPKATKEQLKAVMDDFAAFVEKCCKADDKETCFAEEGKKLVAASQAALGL

COc1cc(/C=C/c2nc(-c3cc(OC)c(OC)c(OC)c3)no2)cc(OC)c1OC [Compound 23, (E)-3-(3,4,5-trimethoxyphenyl)-5-[2-(3,4,5-trimethoxyphenyl)-vinyl]-1,2,4-oxadiazole]
%Relative τ1 of HSA:23 [1]: 23.5% | %Relative τ2 of HSA:23 [1]: 76.5% | τ1 of HSA:23 [1]: 1.59 ± 0.11 ns | τ2 of HSA:23 [1]: 5.70 ± 0.12 ns | τaverage of HSA:23 [1]: 4.73 ± 0.11 ns | ΔG° ([2]; 289 K): −28.7 kJmol^−1 | KSV (Stern-Volmer quenching constant) ([2]; 289 K): 1.56 ± 0.02 × 10^5 M^−1 | kq (bimolecular quenching rate constant) ([2]; 289 K): 3.22e+13 M⁻¹ s⁻¹ | n (number of binding sites) ([2]; 289 K): 0.992 ± 0.01 | KSV values, order of magnitude ([2]; 289–317 K): ~10^5 M^−1 | kq values, order of magnitude ([2]; 289–317 K): ~10^13 M^−1s^−1 | ΔG° ([2]; 296 K): −29.2 kJmol^−1 | KSV (Stern-Volmer quenching constant) ([2]; 296 K): 1.44 ± 0.02 × 10^5 M^−1 | kq (bimolecular quenching rate constant) ([2]; 296 K): 2.97e+13 M⁻¹ s⁻¹ | n (number of binding sites) ([2]; 296 K): 1.04 ± 0.01 | ΔG° ([2]; 303 K): −29.7 kJmol^−1 | KSV (Stern-Volmer quenching constant) ([2]; 303 K): 1.31 ± 0.07 × 10^5 M^−1 | kq (bimolecular quenching rate constant) ([2]; 303 K): 2.7e+13 M⁻¹ s⁻¹ | n (number of binding sites) ([2]; 303 K): 1.09 ± 0.01 | ΔG° ([2]; 310 K): −30.2 kJmol^−1 | KSV (Stern-Volmer quenching constant) ([2]; 310 K): 1.22 ± 0.01 × 10^5 M^−1 | kq (bimolecular quenching rate constant) ([2]; 310 K): 2.52e+13 M⁻¹ s⁻¹ | n (number of binding sites) ([2]; 310 K): 1.02 ± 0.01 | ΔG° ([2]; 317 K): −30.7 kJmol^−1 | KSV (Stern-Volmer quenching constant) ([2]; 317 K): 1.19 ± 0.02 × 10^5 M^−1 | kq (bimolecular quenching rate constant) ([2]; 317 K): 2.45e+13 M⁻¹ s⁻¹ | n (number of binding sites) ([2]; 317 K): 1.02 ± 0.01 | ΔH° ([2]; van't Hoff analysis, 289–317 K): −7.85 ± 0.71 kJmol^−1 | ΔS° ([2]; van't Hoff analysis, 289–317 K): 72.2 ± 2.3 J/(mol·K) | effect on the secondary content of HSA (CD) [3]: does not significantly perturb | decrease of the KSV value in the presence of warfarin ([4]; 310 K): 14% | main binding site in HSA ([4]; competitive binding with site probes): subdomain IIA (site I)
